# Patent publication USRE47689E1, “Compounds for treating spinal muscular atrophy” (PTC Therapeutics, Inc., priority 2011, dated 2019)
# Where two headings read alike, the source gives them in different places.
# Columns and labels:
# [1] = tested on: SMN2 minigene (full length SMN2 minigene mRNA containing SMN2 exon 7); assay: SMN2 minigene mRNA splicing RT-qPCR assay in cultured cells; type: cell-based, human; conditions: Homo sapiens, HEK293-H, read-out: EC1.5x for production of full length SMN2 mRNA
# In short: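 HEK293H cells stably carrying the SMN2-A minigene treated 24 h at 37° C with compound (DMSO, 200× stock), then lysed. Multiplex RT-qPCR (SMN primers 0.4 μM final; 40 cycles) measures full-length exon 7-containing minigene mRNA, normalized to GAPDH and to vehicle; EC1.5x derived and binned by stars.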
# Smn protein = Smn protein assay in cultured cells (SMN HTRF); type: cell-based, human; conditions: 48 hours; for maximum fold (Fold) increase of Smn protein: SMA patient fibroblast cells, 7-point concentration data, fold increase relative to vehicle control (SMN HTRF); for EC1.5x (concentration giving 1.5-fold Smn protein increase): SMA Type 1 patient fibroblast cells (GM03813), 7-point concentration curve, SMN HTRF, concentration producing 1.5 times Smn protein vs DMSO vehicle control, read-out: EC1.5x for Smn protein expression
# In short: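 Lysates in RIPA with protease inhibitors are incubated overnight at room temperature with HTRF anti-SMN antibodies. EC1.5x is derived from fold increase in ΔF over vehicle.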
# [2] = HEK293H cells stably transfected with SMN2-A minigene, 24 hours, 7-point concentration curve, 1.5-fold relative to vehicle-treated cells
Structure (SMILES),"EC (1.5-fold) [1, 2] [µM]",maximum fold (Fold) increase of Smn protein (Smn protein),melting point [°C],EC1.5x (concentration giving 1.5-fold Smn protein increase) (Smn protein) [nM],EC (1.5-fold) ([1]; 24 h) [µM]
"CCc1ccn2cc(-c3cc4ccc(N5CCNCC5)cc4oc3=O)nc2c1 [Compound 287, 3-(7-ethylimidazo[1,2-a]pyridin-2-yl)-7-(piperazin-1-yl)-2H-chromen-2-one]",0.3 to 1,* (maximum fold increase of ≤1.2),253 to 263,–,–
"CCc1ccn2cc(-c3cc4ccc(N5CCN(C)CC5)cc4oc3=O)nc2c1 [Compound 288, 3-(7-ethylimidazo[1,2-a]pyridin-2-yl)-7-(4-methylpiperazin-1-yl)-2H-chromen-2-one]",1 to 3,* (maximum fold increase of ≤1.2),203 to 211,–,–
"CCc1ccn2cc(-c3cc4ccc(N5C[C@@H](C)N[C@@H](C)C5)cc4oc3=O)nc2c1 [Compound 289, 7-[(3R,5S)-3,5-dimethylpiperazin-1-yl]-3-(7-ethylimidazo[1,2-a]pyridin-2-yl)-2H-chromen-2-one]",0.3 to 1,* (maximum fold increase of ≤1.2),183 to 188,–,–
"O=c1oc2cc(N3CCNCC3)ccc2cc1-c1cc(F)cc(F)c1 [Compound 291, 3-(3,5-difluorophenyl)-7-(piperazin-1-yl)-2H-chromen-2-one]",0.3 to 1,* (maximum fold increase of ≤1.2),202 to 206,–,–
"O=c1oc2cc(N3CCNCC3)cc(F)c2cc1-c1nc2c(F)cccc2o1 [Compound 292, 5-fluoro-3-(4-fluoro-1,3-benzoxazol-2-yl)-7-(piperazin-1-yl)-2H-chromen-2-one]",0.3 to 1,*** (fold increase between >1.35 and ≤1.5),225 to 230,–,–
"CN1CCCN(c2ccc3cc(-c4cn5cccc(C(F)(F)F)c5n4)c(=O)oc3c2)CC1 [Compound 293, 7-(4-methyl-1,4-diazepan-1-yl)-3-[8-(trifluoromethyl)imidazo[1,2-a]pyridin-2-yl]-2H-chromen-2-one]",0.3 to 1,* (maximum fold increase of ≤1.2),196 to 199,–,–
"CN1CCCN(c2ccc3cc(-c4cn5cc(F)ccc5n4)c(=O)oc3c2)CC1 [Compound 294, 3-(6-fluoroimidazo[1,2-a]pyridin-2-yl)-7-(4-methyl-1,4-diazepan-1-yl)-2H-chromen-2-one]",0.1 to 0.3,** (fold increase between >1.2 and ≤1.35),152 to 155,1000 to 3000,–
"CN1CCCN(c2ccc3cc(-c4cn5cccc(F)c5n4)c(=O)oc3c2)CC1 [Compound 295, 3-(8-fluoroimidazo[1,2-a]pyridin-2-yl)-7-(4-methyl-1,4-diazepan-1-yl)-2H-chromen-2-one]",< 0.1,**** (fold increase between >1.5 and ≤1.65),174 to 176,300 to 1000,–
"C[C@@H]1CN(c2ccc3cc(-c4cn5cccc(Cl)c5n4)c(=O)oc3c2)CCN1C [Compound 296, 3-(8-chloroimidazo[1,2-a]pyridin-2-yl)-7-[(3R)-3,4-dimethylpiperazin-1-yl]-2H-chromen-2-one]",0.1 to 0.3,*** (fold increase between >1.35 and ≤1.5),199 to 202,–,–
"Cc1csc(-c2cc3ccc(N4C[C@@H](C)NC[C@@H]4C)cc3oc2=O)n1 [Compound 299, 7-[(2S,5R)-2,5-dimethylpiperazin-1-yl]-3-(4-methyl-1,3-thiazol-2-yl)-2H-chromen-2-one]",1 to 3,* (maximum fold increase of ≤1.2),184 to 190,–,–
"Cc1csc(-c2cc3ccc(N4CCN[C@H](C)C4)cc3oc2=O)n1 [Compound 300, 7-[(3R)-3-methylpiperazin-1-yl]-3-(4-methyl-1,3-thiazol-2-yl)-2H-chromen-2-one]",–,* (maximum fold increase of ≤1.2),176,–,1 to 3
"Cc1csc(-c2cc3ccc(N4CCNC(C)(C)C4)cc3oc2=O)n1 [Compound 301, 7-(3,3-dimethylpiperazin-1-yl)-3-(4-methyl-1,3-thiazol-2-yl)-2H-chromen-2-one]",1 to 3,* (maximum fold increase of ≤1.2),204 to 209,–,–
"Cc1ccn2nc(-c3cc4ccc(N5CCNCC5)cc4oc3=O)cc2c1 [Compound 302, 3-(5-methylpyrazolo[1,5-a]pyridin-2-yl)-7-(piperazin-1-yl)-2H-chromen-2-one]",0.1 to 0.3,*** (fold increase between >1.35 and ≤1.5),228 to 231,300 to 1000,–
"Cc1ccn2nc(-c3cc4ccc(N5CCN(C)CC5)cc4oc3=O)cc2c1 [Compound 303, 7-(4-methylpiperazin-1-yl)-3-(5-methylpyrazolo[1,5-a]pyridin-2-yl)-2H-chromen-2-one]",0.3 to 1,*** (fold increase between >1.35 and ≤1.5),279 to 281,3000 to 10000,–
"Cc1ccn2nc(-c3cc4ccc(N5C[C@@H](C)N[C@@H](C)C5)cc4oc3=O)cc2c1 [Compound 304, 7-[(3R,5S)-3,5-dimethylpiperazin-1-yl]-3-(5-methylpyrazolo[1,5-a]pyridin-2-yl)-2H-chromen-2-one]",0.1 to 0.3,*** (fold increase between >1.35 and ≤1.5),200 to 202,1000 to 3000,–
"Cc1ccn2nc(-c3cc4ccc(N5CCNC(C)(C)C5)cc4oc3=O)cc2c1 [Compound 305, 7-(3,3-dimethylpiperazin-1-yl)-3-(5-methylpyrazolo[1,5-a]pyridin-2-yl)-2H-chromen-2-one]",0.3 to 1,** (fold increase between >1.2 and ≤1.35),203 to 205,–,–
"Cc1ccn2nc(-c3cc4ccc(N5CCN[C@H](C)C5)cc4oc3=O)cc2c1 [Compound 306, 7-[(3R)-3-methylpiperazin-1-yl]-3-(5-methylpyrazolo[1,5-a]pyridin-2-yl)-2H-chromen-2-one]",0.1 to 0.3,*** (fold increase between >1.35 and ≤1.5),183 to 187,–,–
"CCN1CCN(c2ccc3cc(-c4cc5cc(C)ccn5n4)c(=O)oc3c2)CC1 [Compound 307, 7-(4-ethylpiperazin-1-yl)-3-(5-methylpyrazolo[1,5-a]pyridin-2-yl)-2H-chromen-2-one]",0.3 to 1,*** (fold increase between >1.35 and ≤1.5),257 to 259,3000 to 10000,–
"CCCN1CCN(c2ccc3cc(-c4cc5cc(C)ccn5n4)c(=O)oc3c2)CC1 [Compound 308, 3-(5-methylpyrazolo[1,5-a]pyridin-2-yl)-7-(4-propylpiperazin-1-yl)-2H-chromen-2-one]",3 to 30,** (fold increase between >1.2 and ≤1.35),228 to 230,–,–
"Cc1ccn2nc(-c3cc4ccc(N5CCCNCC5)cc4oc3=O)cc2c1 [Compound 309, 7-(1,4-diazepan-1-yl)-3-(5-methylpyrazolo[1,5-a]pyridin-2-yl)-2H-chromen-2-one]",0.3 to 1,** (fold increase between >1.2 and ≤1.35),203 to 206,–,–
"Cc1ccn2nc(-c3cc4ccc(N5CCCN(C)CC5)cc4oc3=O)cc2c1 [Compound 310, 7-(4-methyl-1,4-diazepan-1-yl)-3-(5-methylpyrazolo[1,5-a]pyridin-2-yl)-2H-chromen-2-one]",0.3 to 1,** (fold increase between >1.2 and ≤1.35),175 to 177,–,–
"O=c1oc2cc(N3CCNCC3)cc(F)c2cc1-c1cn2ccsc2n1 [Compound 311, 5-fluoro-3-(imidazo[2,1-b][1,3]thiazol-6-yl)-7-(piperazin-1-yl)-2H-chromen-2-one]",< 0.1,*** (fold increase between >1.35 and ≤1.5),278 to 283,1000 to 3000,–
"O=c1oc2cc(N3CCNCC3)cc(F)c2cc1-c1cn2cccnc2n1 [Compound 312, 5-fluoro-3-(imidazo[1,2-a]pyrimidin-2-yl)-7-(piperazin-1-yl)-2H-chromen-2-one]",0.3 to 1,** (fold increase between >1.2 and ≤1.35),298 to 302,–,–
"O=c1oc2cc(N3CCNCC3)ccc2cc1-c1nc2ccccc2[nH]1 [Compound 313, 3-(1H-benzimidazol-2-yl)-7-(piperazin-1-yl)-2H-chromen-2-one]",0.3 to 1,* (maximum fold increase of ≤1.2),254 to 258,–,–
"O=c1oc2cc(N3CCNCC3)ccc2cc1-c1nc2cncnc2[nH]1 [Compound 314, 7-(piperazin-1-yl)-3-(9H-purin-8-yl)-2H-chromen-2-one]",1 to 3,* (maximum fold increase of ≤1.2),291 to 297,–,–
